Measurements from patent US11903912B2, “Composition for preventing and treating breast cancer including selenopsammaplin A as active ingredients” (Seoul National University R & DB Foundation, priority 2019, dated 2024).

Target: T1, DOT1L (Homo sapiens, UniProt Q8TEK3)
T1 construct: based on the finding that DOT1L was overexpressed in the breast cancer cell line; endogenous in cells
Experiment: Target selectivity for H3K79 residue in MDA-MB-231 cell line, western blot
Assay type: cell-based
Experimental: Compound 2 (X=ph) was selected from among selenopsammaplin A and the derivatives thereof, and in order to confirm the selectivity thereof for the H3K79 residue, which is an intracellular DOT1L target, an experiment was performed as follows. The triple-negative breast cancer cell line MDA-MB-231 was spread at a concentration of 2×10^6 cells/well on a DMEM medium containing 10% FBS in a 6-well plate, cultured at 37° C. for 24 hours under a 5% CO2 condition, and then washed twice with phosphate-buffered saline (PBS). Attached cells were recovered and washed twice with PBS, and then boiling 2× sample loading buffer (250 mM Tris-HCl (pH 6.8), 4% SDS, 10% glycerol, 0.006% bromophenol blue, 2% β-mercaptoethanol, 50 mM sodium fluoride, and 5 mM sodium orthovanadate) was added thereto to disrupt the cells and the cells were left at 100° C. for 10 minutes. After cooling, the cells were stored at […] and […] at 37° C. immediately before use in protein quantification and electrophoresis. 10 μg of proteins were electrophoresed at 100 V for 2 hours using a 12% SDS-polyacrylamide gel (#456-1036, Bio-Rad, Hercules, Calif.). […] These were quantified using ImageJ software and the results thereof are illustrated in FIG. 4B.

T1 sequence (Q8TEK3 whole entry): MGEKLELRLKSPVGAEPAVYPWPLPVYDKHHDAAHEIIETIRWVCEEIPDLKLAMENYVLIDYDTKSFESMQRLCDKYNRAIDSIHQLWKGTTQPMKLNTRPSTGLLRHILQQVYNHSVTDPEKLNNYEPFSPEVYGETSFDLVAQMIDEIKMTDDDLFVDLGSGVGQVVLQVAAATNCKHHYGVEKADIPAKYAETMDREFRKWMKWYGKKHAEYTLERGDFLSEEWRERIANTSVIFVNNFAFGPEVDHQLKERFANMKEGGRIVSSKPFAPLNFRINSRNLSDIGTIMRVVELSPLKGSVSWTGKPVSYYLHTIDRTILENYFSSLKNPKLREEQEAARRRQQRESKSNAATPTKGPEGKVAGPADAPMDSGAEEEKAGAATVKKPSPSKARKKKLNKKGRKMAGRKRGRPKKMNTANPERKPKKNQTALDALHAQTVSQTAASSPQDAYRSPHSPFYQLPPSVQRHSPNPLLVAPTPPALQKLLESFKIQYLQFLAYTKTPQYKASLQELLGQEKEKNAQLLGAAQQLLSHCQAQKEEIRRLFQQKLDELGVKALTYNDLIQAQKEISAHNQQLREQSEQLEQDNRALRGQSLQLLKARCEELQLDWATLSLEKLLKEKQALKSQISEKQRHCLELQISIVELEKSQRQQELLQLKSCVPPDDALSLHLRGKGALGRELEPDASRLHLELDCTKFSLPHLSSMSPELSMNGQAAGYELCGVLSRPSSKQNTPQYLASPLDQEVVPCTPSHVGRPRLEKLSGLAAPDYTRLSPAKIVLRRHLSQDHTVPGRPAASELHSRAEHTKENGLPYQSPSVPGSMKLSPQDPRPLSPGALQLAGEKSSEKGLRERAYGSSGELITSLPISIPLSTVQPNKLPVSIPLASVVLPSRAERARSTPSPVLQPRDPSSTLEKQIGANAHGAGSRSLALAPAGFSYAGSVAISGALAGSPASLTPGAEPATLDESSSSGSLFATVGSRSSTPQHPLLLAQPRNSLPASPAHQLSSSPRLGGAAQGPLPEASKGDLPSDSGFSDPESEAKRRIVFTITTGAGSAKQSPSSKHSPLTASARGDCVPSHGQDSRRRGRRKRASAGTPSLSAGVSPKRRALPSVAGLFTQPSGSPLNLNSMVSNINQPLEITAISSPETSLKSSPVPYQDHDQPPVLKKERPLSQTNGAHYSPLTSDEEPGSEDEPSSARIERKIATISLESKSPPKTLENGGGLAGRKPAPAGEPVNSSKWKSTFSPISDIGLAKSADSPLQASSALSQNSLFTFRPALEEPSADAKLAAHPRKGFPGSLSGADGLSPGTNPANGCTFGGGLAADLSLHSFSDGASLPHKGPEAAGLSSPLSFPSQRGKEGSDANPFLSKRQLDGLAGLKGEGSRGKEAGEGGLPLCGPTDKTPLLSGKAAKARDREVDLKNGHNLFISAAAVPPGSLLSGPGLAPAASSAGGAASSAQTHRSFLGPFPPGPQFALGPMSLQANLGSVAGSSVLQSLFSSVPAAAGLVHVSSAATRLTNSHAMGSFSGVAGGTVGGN

O=C(NCC[Se][Se]CCNC(=O)/C(Cc1ccccc1)=N/O)/C(Cc1ccccc1)=N/O [Compound 2, (2E,2′E)-N,N′-(diselenediylbis(ethane-2,1-diyl))bis(2-(hydroxyimino)-3-phenylpropanamide)]
methylation of other histone 3 residues (MDA-MB-231, H3K4me2, H3K27me2, H3K36me2 western blot, FIG. 4): without changing
methylation of H3K79 (residue 79) (MDA-MB-231, H3K79me2 western blot, FIG. 4, compared to psammaplin A): specifically suppressed
